Columns and labels:
[1] = Ketamine and norketamine concentrations in blood plasma during infusion; type: in vivo, human
Protocol: Blood samples were taken from each patient during his or her infusion regimen, and those samples were shipped to an analytical laboratory (National Medical Services Company, in Willow Grove, Pa.) to have their ketamine concentrations analyzed. […] In view of those data, it is believed that blood plasma concentrations of at least about 200 ng/ml (and preferably at least about 250 to about 350 ng/ml) should be regarded as target levels for effective treatments.

[2] = test system: patients with post-herpetic neuralgia (shingles); test: Ketamine treatment of patients with post-herpetic neuralgia (shingles); type: in vivo, human
Protocol: Several patients were also treated who suffered from post-herpetic neuralgia (commonly known as shingles).

[3] = test system: patients with chronic neuropathic pain; test: Prolonged infusions of ketamine without any safener drug or magnesium, patients treated in Australia; type: in vivo, human
Source text: About 30 patients have been treated during the span of 1997 through 2002, in Australia, by one of the Inventors herein (Correll), using prolonged infusions of ketamine without any safener drug or magnesium. […] Those patients have been described in more detail in Correll et al 2004, and more current information on the duration of remission are provided in FIGS. 1 and 2 of that report. That report is not prior art against this invention.

[4] = test system: patients with post-herpetic neuralgia; settings: cited from earlier work; for patients in whom side effects were observed: single intravenous injection, of 8 patients (ketamine 0.15 mg/kg, morphine 0.075 mg/kg), Eide et al 1994
[5] = test system: patients with CRPS-Type 1 (RSD) neuropathic pain; test: Prolonged continuous intravenous ketamine infusion with clonidine and MgSO4 in U.S. patients with CRPS-Type 1 (RSD); type: in vivo, human
Protocol: Roughly 2 hours before ketamine infusion begins, the patient should be given an oral dose of a “safener drug” that can reduce or eliminate the risks of any neurotoxic side effects that might otherwise be caused by continuous prolonged administration of the ketamine. […] As an additional benefit, clonidine (and various other alpha-2 adrenergic agonist drugs) can also help reduce blood pressure. This is useful, when used in conjunction with ketamine, since elevated blood pressure can be a side effect of ketamine, due to certain activities involving the sympathetic nervous system and the release of catecholamines.
In the treatments disclosed herein, clonidine tablets containing 0.1 or 0.2 mg were administered orally, every 8 to 12 hours, with good results. […] The transdermal form of clonidine (i.e., using skin patches) has also been used, with good results.
Beginning roughly 2 hours before the ketamine infusion is commenced (this can be done conveniently at the same time when the first clonidine tablet is taken), the patient should also be administered magnesium, preferably by intravenous infusion of a water-soluble salt, such as magnesium sulfate or chloride. This can be done by dissolving 2 grams of MgSO4 in 250 milliliters of 5% dextrose in water (abbreviated as D5W) and infusing the liquid into the patient over a period of about 2 hours.
A second infusion of 2 grams of MgSO4 should be administered roughly 24 hours later. This can be repeated each day, if desired, if the patient has not yet achieved complete cessation of the chronic pain; however, in the treatments completed to date, it has never been provided more than 3 times.
As soon as the initial magnesium infusion (which takes about 2 hours) has been completed, the patient is ready for the ketamine infusion to begin. In the treatments described herein, since these were done without being able to rapidly determine ketamine concentrations in blood, each patient was individually “titered”, by testing a series of gradually increasing dosages until a “maximum tolerated dosage” was reached and determined.
This typically was done by starting each patient at an initial dosage of 10 mg per hour, and then evaluating the patient every 2 hours after that, to see whether the dosage should be increased by another 5 or 10 mg/hr. When a patient began showing or reporting substantial CNS effects (such as feeling drunk, slurring of speech, semi-hallucinatory thoughts or visions, etc.), it was presumed that the maximum tolerated dosage had been reached or slightly passed, and the dosage was decreased slightly (such as by 5 or 10 mg/hr, depending on how well the reported pain levels were decreasing).
Four other patients who had suffering from CRPS type 1 for at least two years were subsequently treated in the U.S. Because of patient privacy concerns, the details of their condition cannot be disclosed herein. Typical treatments for these patients commenced with 2 grams of MgSO4 (infused in 5% dextrose in water, or D5W) and 1 or 2 tablets of 0.1 mg clonidine, two or three times per day as tolerated, commencing at least an hour prior to the first ketamine infusion. Throughout the treatment, patients continued to receive 1 or 2 tablets of clonidine 2 to 3 times per day, as tolerated, and a second magnesium infusion was performed in some patients at 24 hr.

NMDA receptors = settings: cited from earlier work

Row | SMILES | blood plasma concentration of ketamine in the two patients without complete and long-lasting relief ([1]; did not reach or even closely approach this level) | blood plasma concentration of ketamine that appeared to provide the best results ([1]; plasma, during infusion) | outcome in certain other patients [2] | outcome in one patient [2] | overall result ([3]; ketamine alone, about 30 patients) | patients believed to remain generally pain-free or in partial remission ([3]; of about 30 patients treated 1997 through 2002, ketamine alone) | patients in whom side effects were observed [4] | tolerability ([4]; subcutaneous administration over a continuous span of 7 days, 5 patients, Eide et al 1995) | reported pain level ([5]; FIG. 1 patient, baseline 8, after 24 hours of ketamine infusion (plateau)) | duration of apparently complete relief ([5]; FIG. 1 patient, one of four further CRPS type 1 patients) | reported pain level ([5]; FIG. 1 patient, within about 3 hours after second MgSO4 infusion commencing at 24 hours, ketamine continued) | duration of apparently complete remission ([5]; first patient treated in the U.S.) | pain relief outcome ([5]; one of four further CRPS type 1 patients, appears permanent as of filing date) | level to which pain returned, relative to pretreatment level ([5]; one of two patients with low ketamine plasma concentrations) | level to which pain returned ([5]; other of two patients with low ketamine plasma concentrations) | level of norketamine in blood ([1]; one patient with return of pain) | effectiveness relative to ketamine in reducing pain signals (NMDA receptors) | effectiveness relative to ketamine in suppressing activity at NMDA receptors (NMDA receptors)
1 | CNC1(c2ccccc2Cl)CCCCC1=O (racemic) [ketamine] | < 300 ng/mL | greater than 250 ng/ml | transitory and partial benefits | essentially complete remission | generally good results | more than 25 patients | 8 patients | associated with intolerable side effects | about 1.3 | roughly six | zero | about 18 months | apparently complete relief | roughly 50% | roughly the same starting level that existed prior to treatment |  |  | 
2 | CN1CC[C@]23c4c5ccc(O)c4O[C@H]2[C@@H](O)C=C[C@H]3[C@H]1C5 [morphine] |  |  |  |  |  |  | 6 patients |  |  |  |  |  |  |  |  |  |  | 
3 | NC1(c2ccccc2Cl)CCCCC1=O (stereo not shown) [norketamine] |  |  |  |  |  |  |  |  |  |  |  |  |  |  |  | high level | about 25% | about 25%
